# According to patent US20090075950A1, “Dosage Forms Containing A PPI, NSAID And A Buffer” (Takeda Pharmaceuticals North America, Inc., priority 2002, published 2009):
# Assays:
# [1] = PPI/NSAID drug substance compatibility: storage of lansoprazole/NSAID mixtures with and without buffer; type: physicochemical
# Method: Various NSAIDs were combined with lansoprazole with and without a buffer to determine the compatibility of the components. The various mixtures were placed at room temperature and 40° C. with 75% relative humidity. The samples were tested initially and after two weeks at the storage conditions above. The results are reported in Table 1 below as a percent of the theoretical amount of a given component.
# [2] = Potency by HPLC and compatibility on storage of granulations and drug substances; type: physicochemical; conditions: for Potency 2 Weeks Extreme Conditions, NSAID: 2 weeks at 40° C. with 75% to 85% relative humidity; for Potency 4 Weeks Extreme Conditions, NSAID: 4 weeks at 40° C. with 75% to 85% relative humidity; for Potency 19 Days RT, NSAID: 19 days at room temperature; for Potency 33 Days RT, NSAID: 33 days at room temperature
# Method: In this example, granulations of a PPI and various NSAIDs were prepared to determine the compatibility of these substances with each other in a granulated form.
# The potency (mg/g) of each drug substance in each granulation was determined by HPLC.
# Granulations A, C, and D, as well as naproxen and piroxicam drag substances were weighed and separately placed in scintillation vials and stored at room temperature (RT) and at 40° C. with 75% to 85% relative humidity (“Extreme Conditions”). Granulations A, C, and D, as well as the naproxen and piroxicam, were tested for potency of the lansoprazole and NSAID after 19 and 33 days at the room temperature conditions and after two and four weeks under the Extreme Conditions.
Compound,"% of Theory, 40° C. 75% humidity, lanso ([1]; lansoprazole recovered after two weeks at 40° C. with 75% relative humidity)","% of Theory, Room Temp., lanso ([1]; lansoprazole recovered after two weeks at room temperature)","% of Theory, Initial, lanso ([1]; lansoprazole recovered, initial)","Potency 2 Weeks Extreme Conditions, NSAID [2]","Potency 4 Weeks Extreme Conditions, NSAID [2]","Potency 19 Days RT, NSAID [2]","Potency 33 Days RT, NSAID [2]"
"Cc1c(OCC(F)(F)F)ccnc1C[S+]([O-])c1nc2ccccc2[nH]1 (centres unmarked) [Lansoprazole, lansoprazole]",99.1/NA %,99.1/NA %,100.8/NA %,–,–,–,–
"COc1ccc2cc([C@H](C)C(=O)O)ccc2c1 [Naproxen, naproxen]",–,–,–,NA/996.7 mg/g,NA/1000.9 mg/g,NA/997.2 mg/g,NA/998.2 mg/g
"CN1C(C(=O)Nc2ccccn2)=C(O)c2ccccc2S1(=O)=O [Piroxicam, piroxicam]",–,–,–,NA/942.2 mg/g,NA/1005.5 mg/g,NA/1027.1 mg/g,NA/998.5 mg/g
